Test results: US10375959B2, “Ternary herbicidal combination comprising saflufenacil” (BASF Agro B.V., priority 2015, dated 2019)

Experiments:
Type in all cases: in vivo
[1] = test system: Abutilon theophrasti; assay: Greenhouse post-emergence herbicidal activity on ABUTH (velvetleaf), 20 DAT; conditions: ABUTH
Excerpt: (§1) The test plants were first grown to a height of 3 to 20 cm, depending on the plant habit, and only then treated (post-emergence treatment). Here, the herbicidal combinations were suspended, emulsified or dissolved in water as distribution medium and afterwards applied by spraying, using finely distributing nozzles.
(§2) The herbicides A, B and C were used as commercially available formulations and introduced to the spray liquor with the amount of solvent system used for applying the active compound. In the examples, the solvent used was water.
(§3) The test period extended over 20 days. During this time, the plants were tended, and their response to the treatments with active compounds was evaluated.
(§4) The evaluation for the damage caused by the chemical compositions was carried out using a scale from 0 to 100%, compared to the untreated control plants. Here, 0 means no damage and 100 means complete destruction of the plants.
(§5) The plants used in the greenhouse experiments belonged to the following species:
(§6) The value E, which is to be expected if the activity of the individual compounds is just additive, was calculated using the method of S. R. Colby (1967) “Calculating synergistic and antagonistic responses of herbicide combinations”, Weeds 15, p. 22 ff. For two component mixtures the value E was calculated by the following formula E=X+Y−(X·Y/100)
(§7) where X=effect in percent using a mixture of herbicides A and B at application rates a and b, respectively; • Y=effect in percent using herbicide C at an application rate c; • E=expected effect (in %) of A+B+C at application rates a+b+c.
(§8) If the value observed in this manner is higher than the value E calculated according to Colby, a synergistic effect is present.
(§9) Tables 1 to 41 relate to the herbicidal activities of the binary mixture of herbicides A and B, of herbicide C individually and of their combinations in post-emergence applications assessed 20 days after treatment (20 DAT).

[2] = test system: Amaranthus retroflexus; assay: Greenhouse post-emergence herbicidal activity on AMARE (pig weed), 20 DAT; conditions: AMARE
Excerpt: as §1, §2, §3, §4, §5, §6, §7, §8, §9

[3] = test system: Digitaria sanguinalis; assay: Greenhouse post-emergence herbicidal activity on DIGSA (large crabgrass), 20 DAT; conditions: DIGSA
Excerpt: as §1, §2, §3, §4, §5, §6, §7, §8, §9

[4] = test system: Echinochloa crus-galli; assay: Greenhouse post-emergence herbicidal activity on ECHCG (barnyardgrass), 20 DAT
Excerpt: as §1, §2, §3, §4, §5, §6, §7, §8, §9

[5] = test system: Setaria viridis; assay: Greenhouse post-emergence herbicidal activity on SETVI (green foxtail), 20 DAT
Excerpt: as §1, §2, §3, §4, §5, §6, §7, §8, §9

[6] = test system: Brachiaria platyphylla; assay: Greenhouse post-emergence herbicidal activity on BRAPP (broadleaf signalgrass), 20 DAT
Excerpt: as §1, §2, §3, §4, §5, §6, §7, §8, §9

[7] = test system: Avena fatua; assay: Greenhouse post-emergence herbicidal activity on AVEFA (wild oat), 20 DAT
Excerpt: as §1, §2, §3, §4, §5, §6, §7, §8, §9

[8] = test system: Brachiaria decumbens; assay: Greenhouse post-emergence herbicidal activity on BRADC (Surinam grass), 20 DAT; conditions: C 3.0 g ai/ha
Excerpt: as §1, §2, §3, §4, §5, §6, §7, §8, §9

COCc1cnc(C2=NC(C)(C(C)C)C(=O)N2)c(C(=O)O)c1 (centres unmarked) [imazamox]
inhibition at 0.5 g/ha ([1]; Abutilon theophrasti, 480 h, 0.5 g ai/ha, 20 DAT, Table 38, read-out: % activity 20 DAT, solo C application): 0% | pest or weed control at 0.5 g/ha ([1]; Abutilon theophrasti, 480 h, C 0.5 g ai/ha): 0% | % activity 20 DAT ([2]; C 0.125 g ai/ha): 10% | inhibition at 0.5 g/ha ([2]; Amaranthus retroflexus, 480 h, 0.5 g ai/ha, 20 DAT, read-out: % activity 20 DAT, solo C application): 40% | % activity 20 DAT ([3]; C 1.0 g ai/ha): 15% | inhibition at 0.5 g/ha ([3]; Digitaria sanguinalis, 480 h, 0.5 g ai/ha, 20 DAT, read-out: % activity 20 DAT, solo C application): 10% | % activity 20 DAT ([4]; C 0.5 g ai/ha): 0% | inhibition at 0.5 g/ha ([5]; Setaria viridis, 480 h, 0.5 g ai/ha, 20 DAT, read-out: % activity 20 DAT, solo C application): 15%

CCCCC(CC)COC(=O)COc1ccc(Cl)cc1Cl (centres unmarked) [2,4-D LV ester, 2-ethylhexyl ester of 2,4-D]
% activity 20 DAT ([1]; C 6.25 g ai/ha): 20% | % activity 20 DAT ([6]; C 6.25 g ai/ha): 20% | % activity 20 DAT ([3]; C 6.25 g ai/ha): 0%

CCOCN(C(=O)CCl)c1c(C)cccc1CC [acetochlor]
pest or weed control at 25 g/ha ([1]; Abutilon theophrasti, 480 h, C 25.0 g ai/ha): 25% | % activity 20 DAT ([2]; C 12.5 g ai/ha): 0% | % activity 20 DAT ([7]; C 50.0 g ai/ha): 10% | % activity 20 DAT ([6]; C 50.0 g ai/ha): 5% | % activity 20 DAT ([5]; C 50.0 g ai/ha): 10%

COc1c(Cl)ccc(Cl)c1C(=O)O [dicamba]
pest or weed control at 4.375 g/ha ([1]; Abutilon theophrasti, 480 h, C 4.375 g ai/ha): 40% | % activity 20 DAT ([6]; C 17.5 g ai/ha): 40%

CS(=O)(=O)NC(=O)c1cc(Oc2ccc(C(F)(F)F)cc2Cl)ccc1[N+](=O)[O-] [fomesafen]
inhibition at 3 g/ha ([1]; Abutilon theophrasti, 480 h, 3.0 g ai/ha, 20 DAT, read-out: % activity 20 DAT, solo C application): 20% | pest or weed control at […] ([1]; Abutilon theophrasti, 480 h, C 1.5 g ai/ha): 5% | inhibition at 3 g/ha ([2]; Amaranthus retroflexus, 480 h, 3.0 g ai/ha, 20 DAT, read-out: % activity 20 DAT, solo C application): 65% | % activity 20 DAT ([7]; C 1.5 g ai/ha): 20% | % activity 20 DAT [8]: 30% | inhibition at […] ([3]; Digitaria sanguinalis, 480 h, 1.5 g ai/ha, 20 DAT, read-out: % activity 20 DAT, solo C application): 20% | inhibition at […] ([4]; Echinochloa crus-galli, 480 h, 1.5 g ai/ha, 20 DAT, read-out: % activity 20 DAT, solo C application): 20%

COC[C@H](C)N(C(=O)CCl)c1c(C)csc1C [dimethenamid-P]
% activity 20 DAT, solo C application ([1]; 37.5 g ai/ha, 20 DAT): 0% | % activity 20 DAT, solo C application ([2]; 37.5 g ai/ha, 20 DAT): 0% | % activity 20 DAT ([2]; C 18.75 g ai/ha): 0% | % activity 20 DAT ([7]; C 75.0 g ai/ha): 20% | % activity 20 DAT ([6]; C 75.0 g ai/ha): 5% | % activity 20 DAT, solo C application ([4]; 75 g ai/ha, 20 DAT): 80%

CCc1cnc(C2=NC(C)(C(C)C)C(=O)N2)c(C(=O)O)c1 (centres unmarked) [imazethapyr]
% activity 20 DAT ([2]; C 1.0 g ai/ha): 55% | % activity 20 DAT ([7]; C 0.5 g ai/ha): 0% | % activity 20 DAT ([3]; C 0.5 g ai/ha): 15% | % activity 20 DAT ([3]; C 2.0 g ai/ha): 20%
